From patent US11415579B2, “Assay for measuring a rate of reaction between a target and a ligand candidate” (Imperial College Innovations Ltd., priority 2016, dated 2022)

How the values were obtained:
[1] = Kinetic thiol consumption assay with model thiol glutathione; format: physicochemical; set-up: Rate constant with glutathione (k(GSH)): unit not given here; details: for Rate constant with glutathione (k(GSH)): 500 μM ligand, 5 μM thiol, phosphate buffer pH 8; for Rate constant with Glutathione: Protein: Glutathione, cysteine position NA, in h-1
Summary of the method: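 GSH 5 μM, degassed phosphate buffer pH 8, TCEP beads 2% v/v; acrylamide added; RT, 1 h; fluorescence ex/em 380/470 nm; normalized to DMSO/thiol control; k from first-order exponential decay fit.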

[2] = target: T1, human cyclin-dependent kinase 2 (Cdk2) (Homo sapiens, UniProt P24941); assay: Kinetic thiol consumption assay with wild type Cdk2 (C177); format: binding; set-up: key to Rate enhancement, Cdk2 WT: k(Cdk2) divided by k(model thiol); Rate constant with Cdk2 (k(Cdk2)): unit not given here; details: for Rate constant with Cdk2 (k(Cdk2)): 500 μM ligand, 5 μM thiol, phosphate buffer pH 8; for Rate enhancement, Cdk2 WT: no additional mutations; for Rate constant with Cdk2 WT: Protein: Cdk2, cysteine position WT, in h^-1; for k(Cdk2)/k(Cdk2_mut) rate enhancement: model thiol Cdk2[C177A, F80C, K278C]; for k(Cdk2)/k(GSH) rate enhancement: model thiol glutathione
T1 construct: poly-histidine; made in house; host or cells: E. coli
Summary of the method: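 Rate enhancement: first-order decay constant with Cdk2 over that with a model thiol. Thiols (5 μM, degassed phosphate buffer pH 8, immobilized TCEP) were incubated with acrylamides at room temperature, and thiol consumption followed by fluorescence at 380/470 nm, normalized to DMSO control. Cdk2 was His-tagged, E. coli-expressed, with one surface cysteine (C177).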

Cdk2[C177A, F80C, K278C] = target: T2, Cdk2[C177A, F80C, K278C] (Homo sapiens, UniProt P24941, C177A/F80C/K278C); assay: Kinetic thiol consumption assay with mutant Cdk2 as model thiol; format: binding; set-up: unit not given here; details: 500 μM ligand, 5 μM thiol, phosphate buffer pH 8
T2 construct: poly-histidine; made in house; host or cells: E. coli
Summary of the method: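 First-order rate constants were derived by exponential-decay fitting of DMSO/thiol-normalized fluorescence (380/470 nm) over time at room temperature. Thiol was 5 μM E. coli-expressed His-tagged Cdk2 mutant C177A/F80C/K278C in degassed pH 8 phosphate buffer containing 2% v/v TCEP beads.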

Cdk2(C177A, F80C) = target: T3, Cdk2(C177A, F80C) (Homo sapiens, UniProt P24941, C177A/F80C); assay: Kinetic thiol consumption assay with Cdk2 mutant F80C, incl. kobs versus concentration (Kd, k2); format: binding; set-up: key to Rate enhancement, Cdk2 F80C: Cdk2 rate constant divided by model-thiol rate constant; details: additional mutation C177A; for Rate constant with Cdk2 F80C: Protein: Cdk2, cysteine position F80C, in h^-1
T3 construct: poly-histidine; made in house; host or cells: E. coli
Summary of the method: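 His-tagged Cdk2(C177A/F80C) from E. coli or model thiol, 5 μM in degassed phosphate buffer pH 8 with TCEP beads, reacted with acrylamide ligands; fluorescence (ex/em 380/470 nm) normalized to DMSO control and fitted to first-order decay for kobs. Kd and k2 obtained from hyperbolic fit of kobs versus ligand concentration.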

Cdk2(H71C) (C177A) = target: T4, Cdk2(H71C) (C177A) (Homo sapiens, UniProt P24941, C177A/H71C); assay: Kinetic thiol consumption assay with Cdk2 mutant H71C; format: binding; set-up: key to Rate enhancement, Cdk2 H71C: rate constant with Cdk2 ÷ rate constant with model thiol (fold); details: additional mutation C177A; for Rate constant with Cdk2 H71C: Protein: Cdk2, cysteine position H71C, in h^-1
T4 construct: poly-histidine; made in house; host or cells: E. coli
Summary of the method: (§1)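 Thiol consumption was monitored kinetically using 5 μM Cdk2 (C177A plus one introduced cysteine) in degassed phosphate buffer at pH 8 with TCEP beads. Plates were kept 1 h at room temperature before fluorescence reading, and rate constants came from exponential decay fitting.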

Cdk2(S276C) (C177A) = target: T5, Cdk2(S276C) (C177A) (Homo sapiens, UniProt P24941, C177A/S276C); assay: Kinetic thiol consumption assay with Cdk2 mutant S276C; format: binding; set-up: key to Rate enhancement, Cdk2 S276C: rate constant with Cdk2 ÷ rate constant with model thiol (fold); details: additional mutation C177A; for Rate constant with Cdk2 S276C: Protein: Cdk2, cysteine position S276C, in h^-1
T5 construct: poly-histidine; made in house; host or cells: E. coli
Summary of the method: as §1

Cdk2(N272C) (C177A) = target: T6, Cdk2(N272C) (C177A) (Homo sapiens, UniProt P24941, C177A/N272C); assay: Kinetic thiol consumption assay with Cdk2 mutant N272C; format: binding; set-up: key to Rate enhancement, Cdk2 N272: rate constant with Cdk2 ÷ rate constant with model thiol (fold); details: for Rate enhancement, Cdk2 N272: Cdk2 N272, additional mutation C177A; for Rate constant with Cdk2 N272C: Protein: Cdk2, cysteine position N272C, additional mutation C177A, in h^-1
T6 construct: poly-histidine; made in house; host or cells: E. coli
Summary of the method: as §1

Cdk2(T182C) (C177A) = target: T7, Cdk2(T182C) (C177A) (Homo sapiens, UniProt P24941, C177A/T182C); assay: Kinetic thiol consumption assay with Cdk2 mutant T182C; format: binding; set-up: key to Rate enhancement, Cdk2 T182C: rate constant with Cdk2 ÷ rate constant with model thiol (fold); details: additional mutation C177A; for Rate constant with Cdk2 T182C: Protein: Cdk2, cysteine position T182C, in h^-1
T7 construct: poly-histidine; made in house; host or cells: E. coli
Summary of the method: as §1

Cdk2(R122C) (C177A) = target: T8, Cdk2(R122C) (C177A) (Homo sapiens, UniProt P24941, C177A/R122C); assay: Kinetic thiol consumption assay with Cdk2 mutant R122C; format: binding; set-up: key to Rate enhancement, Cdk2 R122C: rate constant with Cdk2 ÷ rate constant with model thiol (fold); details: additional mutation C177A; for Rate constant with Cdk2 R122C: Protein: Cdk2, cysteine position R122C, in h-1
T8 construct: poly-histidine; made in house; host or cells: E. coli
Summary of the method: as §1

Cdk2(S181C) (C177A) = target: T9, Cdk2(S181C) (C177A) (Homo sapiens, UniProt P24941, C177A/S181C); assay: Kinetic thiol consumption assay with Cdk2 mutant S181C; format: binding; set-up: key to Rate enhancement, Cdk2 S181C: rate constant with Cdk2 ÷ rate constant with model thiol (fold); details: additional mutation C177A; for Rate constant with Cdk2 S181C: Protein: Cdk2, cysteine position S181C, in h^-1
T9 construct: poly-histidine; made in house; host or cells: E. coli
Summary of the method: as §1

| SMILES | Rate constant with glutathione (k(GSH)) [1] | Rate constant with Glutathione [1] | Rate constant with Cdk2 (k(Cdk2)) [2] | Rate enhancement, Cdk2 WT [2] | Rate constant with Cdk2 WT [2] | k(Cdk2)/k(Cdk2_mut) rate enhancement [2] | k(Cdk2)/k(GSH) rate enhancement [2] | Rate constant with Cdk2[C177A, F80C, K278C] (k(Cdk2_mut)) (Cdk2[C177A, F80C, K278C]) | Rate enhancement, Cdk2 F80C (Cdk2(C177A, F80C)) | Rate enhancement, Cdk2 H71C (Cdk2(H71C) (C177A)) | Rate constant with Cdk2 H71C (Cdk2(H71C) (C177A)) | Rate enhancement, Cdk2 S276C (Cdk2(S276C) (C177A)) | Rate constant with Cdk2 S276C (Cdk2(S276C) (C177A)) | Rate enhancement, Cdk2 N272 (Cdk2(N272C) (C177A)) | Rate constant with Cdk2 N272C (Cdk2(N272C) (C177A)) | Rate enhancement, Cdk2 T182C (Cdk2(T182C) (C177A)) | Rate constant with Cdk2 T182C (Cdk2(T182C) (C177A)) | Rate enhancement, Cdk2 R122C (Cdk2(R122C) (C177A)) | Rate constant with Cdk2 R122C (Cdk2(R122C) (C177A)) | Rate enhancement, Cdk2 S181C (Cdk2(S181C) (C177A)) | other results |
| --- | --- | --- | --- | --- | --- | --- | --- | --- | --- | --- | --- | --- | --- | --- | --- | --- | --- | --- | --- | --- | --- |
| C=CC(=O)Nc1cccc(-c2cc3ccccc3[nH]2)c1 [EL-1098] | 0.01147 | 0.01151 | 0.01063 | 0.9235 | 0.01063 | 0.3049 | 0.9268 | 0.03487 | 0.7203 | 0.2587 | 0.002978 | 1.017 | 0.0117 | 0.8491 | 0.009773 | 2.526 | 0.02907 | 0.5598 | 0.006443 | 0.4335 | Rate constant with Cdk2 F80C (Cdk2(C177A, F80C)): 0.008291; Rate constant with Cdk2 S181C (Cdk2(S181C) (C177A)): 0.00499 |
| C=CC(=O)N1CC(n2cccn2)C1 [CA-173] | 0.01577 | 0.01565 | 0.00754 | 0.4816 | 0.007537 | 1.495 | 0.4779 | 0.00504 | 0.3401 | 0.1755 | 0.002746 | 1.187 | 0.01857 | 0.6511 | 0.01019 | 2.778 | 0.04347 | 0.3379 | 0.005288 | 1.349 | Rate constant with Cdk2 F80C (Cdk2(C177A, F80C)): 0.005323; Rate constant with Cdk2 S181C (Cdk2(S181C) (C177A)): 0.02111 |
| C=CC(=O)NC1CC2CC1C1CCCC21 (stereo not drawn) [CA-159] | 0.00418 | 0.007067 | 0.00232 | 0.5437 | 0.003842 | 1.79 | 0.5547 | 0.0013 | 0 | 0.5333 | 0.003769 | 0.1634 | 0.001155 | 0.2158 | 0.001525 | 0.9382 | 0.00663 | 0.2488 | 0.001758 | 0 | – |
| C=CC(=O)Nc1nc2c(s1)CCCCCC2 [CA-170] | 0.06955 | 0.07188 | 0.2972 | 4.135 | 0.2972 | 0.3231 | 4.273 | 0.9197 | 13.67 | 0.9221 | 0.06628 | 0.7229 | 0.05196 | 0.4672 | 0.03358 | 5.267 | 0.3786 | 0.3489 | 0.02508 | 0.4978 | Rate constant with Cdk2 F80C (Cdk2(C177A, F80C)): 0.9829; Rate constant with Cdk2 S181C (Cdk2(S181C) (C177A)): 0.03578 |
| C=CC(=O)NC1(c2noc(C3CC3)n2)CCCC1 [CA-044] | 0.00557 | 0.008146 | 0.00269 | 0.3307 | 0.002694 | 1.749 | 0.4838 | 0.00154 | 0 | 0 | – | 0.1116 | 0.0009087 | 0 | – | 0.2903 | 0.002365 | 0.2302 | 0.001875 | 0.1134 | Rate constant with Cdk2 S181C (Cdk2(S181C) (C177A)): 0.0009239 |
